Columns and labels:
[1] = Partition coefficient (log P butanol/buffer); assay type: physicochemical; settings: 1-butanol / 50 mM Tris-HCl, pH 7.4, room temperature
[2] = Water solubility in aqueous buffer; settings: aqueous buffer 10 mM Tris-HCl, pH 7.4, 20° C.
Procedure: The solid compounds were added stepwise to the buffer solution. More substance is added once all the suspended material is dissolved until an equilibrium between undissolved and dissolved substance is reached. The suspension was mixed using a shaker (Heidolph Reax 2000) and treated 5 min in an ultrasound bath (Bandelin, Sonorex Super RK255H).

OATP1B1 = molecular target: T1, OATP1B1 (Homo sapiens, UniProt Q9Y6L6); experiment: Uptake into stable transfected OATP1B1 HEK 293 cells; assay type: cell-based; settings: for Inhibition Rifampicine: uptake into OATP1B1-HEK 293 cells; for Uptake into OATP1B1-HEK 293 cells: 40 min incubation, relative to RC1 (Gd-EOB-DTPA)
T1 sequence (Q9Y6L6 1-691): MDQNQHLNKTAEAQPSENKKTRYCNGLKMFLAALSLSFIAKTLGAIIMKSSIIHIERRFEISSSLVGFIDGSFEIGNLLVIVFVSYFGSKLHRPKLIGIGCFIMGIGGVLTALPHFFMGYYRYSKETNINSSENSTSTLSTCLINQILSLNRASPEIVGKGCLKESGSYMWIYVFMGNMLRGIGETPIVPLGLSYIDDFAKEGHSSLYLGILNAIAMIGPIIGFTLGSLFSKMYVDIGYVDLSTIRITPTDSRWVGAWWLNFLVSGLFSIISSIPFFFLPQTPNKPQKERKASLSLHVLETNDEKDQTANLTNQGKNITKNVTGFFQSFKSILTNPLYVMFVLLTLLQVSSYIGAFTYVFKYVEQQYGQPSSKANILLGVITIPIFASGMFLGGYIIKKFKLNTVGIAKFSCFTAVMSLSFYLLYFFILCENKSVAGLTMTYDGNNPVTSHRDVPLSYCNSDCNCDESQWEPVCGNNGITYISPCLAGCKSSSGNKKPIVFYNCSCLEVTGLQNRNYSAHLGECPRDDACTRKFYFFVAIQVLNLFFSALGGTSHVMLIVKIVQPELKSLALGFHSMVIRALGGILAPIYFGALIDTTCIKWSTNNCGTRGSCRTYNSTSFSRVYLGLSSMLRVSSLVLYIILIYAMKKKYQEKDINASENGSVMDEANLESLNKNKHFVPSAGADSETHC
In short: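 Uptake measured in triplicate after a 40 min, unshaken exposure of OATP1B1-expressing HEK293 cells to 100 µM (final) compound in transport buffer. Cold PBS wash stopped uptake; Gd-EOB-DTPA served as reference standard within each plate.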

[3] = system: freshly isolated rat hepatocytes; experiment: Uptake into freshly isolated rat hepatocytes; settings: for Uptake rat hepatocytes: 100 μmol Gd/L, 10 min, 37° C., relative to RC1 (Gd-EOB-DTPA); for Inhibition Rifampicine: rat hepatocyte uptake, test item and Rifampicine 1:1, each 100 μM
Procedure: After incubation the adherent hepatocytes were washed once with 37° C. Hepes carbonate transport buffer (500 μL/well). The test items and RC1 were prepared from stock solutions (180 to 500 mM concentration) in Hepes carbonate transport buffer at pH 7.4 to reach a final concentration of 100 μmol Gd/L. The specific uptake of the test item or RC1 into rat hepatocytes via OATP1B1 and OATP1B3 was challenged using a known OATP1B1/1B3 inhibitor (Rifampicine, Fa. Sigma R3501, test item and inhibitor 1:1 each 100 μM final concentration). The prepared rat hepatocyte plates were incubated with test solutions (500 μL/well) at 37° C. for 10 min using a thermoshaker (Fa. Grant Bio, PHMP). Triplicates were performed for each test item. After incubating the cells were washed once with cold PBS buffer (Fa. Gibco, Dulbeccos PBS (+)). After washing the intact hepatocytes were lysed by addition of 500 μL cold 0.01% Triton-X 100 in Millipore water for 1 h. […] As a reference standard RC1 is used in the same well plate. The hepatocyte uptake of the test compound is calculated relative to RC1 (resulting in the unit % of RC1).

OATP1B3 = molecular target: T2, OATP1B3 (Homo sapiens, UniProt Q9NPD5); experiment: Uptake into stable transfected OATP1B3 HEK 293 cells; assay type: cell-based; settings: for Inhibition Rifampicine: uptake into OATP1B3-HEK 293 cells; for Uptake into OATP1B3-HEK 293 cells: 40 min incubation, relative to RC1 (Gd-EOB-DTPA)
T2 sequence (Q9NPD5 1-702): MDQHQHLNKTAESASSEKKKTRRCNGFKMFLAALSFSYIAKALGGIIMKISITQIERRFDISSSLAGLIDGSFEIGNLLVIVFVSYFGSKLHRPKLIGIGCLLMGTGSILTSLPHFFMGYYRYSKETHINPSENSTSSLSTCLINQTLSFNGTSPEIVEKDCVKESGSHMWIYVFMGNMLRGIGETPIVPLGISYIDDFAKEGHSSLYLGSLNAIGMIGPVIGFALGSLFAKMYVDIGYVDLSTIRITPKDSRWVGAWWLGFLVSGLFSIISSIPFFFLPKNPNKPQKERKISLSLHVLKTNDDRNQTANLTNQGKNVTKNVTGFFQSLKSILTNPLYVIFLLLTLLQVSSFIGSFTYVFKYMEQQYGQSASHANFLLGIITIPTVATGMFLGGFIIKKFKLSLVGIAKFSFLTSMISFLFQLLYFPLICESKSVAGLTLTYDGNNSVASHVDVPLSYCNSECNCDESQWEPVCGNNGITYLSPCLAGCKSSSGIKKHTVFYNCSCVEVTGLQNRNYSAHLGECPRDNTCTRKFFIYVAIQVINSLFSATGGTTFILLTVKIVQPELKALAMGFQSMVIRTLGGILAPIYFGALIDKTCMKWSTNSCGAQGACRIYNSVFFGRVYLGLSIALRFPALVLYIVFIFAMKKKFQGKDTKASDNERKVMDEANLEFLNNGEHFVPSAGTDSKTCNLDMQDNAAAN
In short: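 HEK 293 cells stably transfected with human OATP1B3 were incubated for 40 min with test items at 100 μM final in transport buffer, in triplicate, then washed with cold PBS. Gadoxetate (Gd-EOB-DTPA) served as the reference standard on the same plate.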

[4] = Relaxivity measurements at 1.41 T in human plasma; assay type: physicochemical; settings: 37° C., normalized to Gd
In short: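 T1 determined by inversion recovery (8 inversion-time steps) and T2 by CPMG sequence, both with relaxation delay ≥5×T1. Each relaxivity used three Gd concentrations between 0.05 and 2 mM. Relaxivities were derived from relaxation rates measured in water and plasma.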

[5] = Relaxivity measurements at 1.41 T in water; assay type: physicochemical; settings: 37° C., normalized to Gd
In short: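 T1 by inversion recovery and T2 by CPMG at 1.41 T (60 MHz), 37° C, relaxation delay ≥5×T1. Three Gd concentrations between 0.05 and 2 mM; relaxivities derived from measured relaxation rates in water.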

SMILES	Log P (partition coefficient butanol/buffer) [1]	Solubility [2] [mM]	Inhibition Rifampicine (OATP1B1) [% inhibition]	Uptake rat hepatocytes [3]	Inhibition Rifampicine [3] [% inhibition]	Inhibition Rifampicine (OATP1B3) [% inhibition]	r1 human plasma [4] [L/mmol/s]	r1 water [5] [L/mmol/s]	Uptake into OATP1B1-HEK 293 cells (OATP1B1)	Uptake into OATP1B3-HEK 293 cells (OATP1B3)
CCOCCOCCOc1ccc(CCC[C@@H](C(=O)O)N2CCN([C@H](CO)C(=O)[O-])CCN([C@H](CO)C(=O)[O-])CCN([C@H](CO)C(=O)[O-])CC2)cc1.[Gd+3] [Example 20, gadolinium (2R,2′R,2″R)-2,2′,2″-{10-[(1S)-1-carboxy-4-{4-[2-(2-ethoxyethoxy)ethoxy]phenyl}butyl]-1,4,7,10-tetraazacyclododecane-1,4,7-triyl}tris(3-hydroxypropanoate)]	−1.11	>381	87	71 % of RC1	91	99	9.8	5.6	–	–
CCOCCOCCOc1ccc(CC(C(=O)O)N2CCN(CC(=O)[O-])CCN(CC(=O)[O-])CCN(CC(=O)[O-])CC2)nc1.[Gd+3] (stereo not shown) [Example 23, gadolinium 2,2′,2″-{10-[1-carboxy-2-{5-[2-(2-ethoxyethoxy)ethoxy]pyridin-2-yl}ethyl]-1,4,7,10-tetraazacyclododecane-1,4,7-triyl}triacetate]	−1.94	>241	0	17 % of RC1	73	71	6.0	4.5	–	–
CCCOc1ccc(CCC(C(=O)O)N2CCN(CC(=O)[O-])CCN(CC(=O)[O-])CCN(CC(=O)[O-])CC2)cc1.[Gd+3] (stereo not shown) [Example 24, gadolinium 2,2′,2″-{10-[1-carboxy-3-(4-propoxyphenyl)propyl]-1,4,7,10-tetraazacyclododecane-1,4,7-triyl}triacetate]	−0.71	>261	87	40 % of RC1	96	94	8.8	4.1	229 % of RC1	17 % of RC1
CCCC(C(=O)[O-])N1CCN(CC(=O)[O-])CCN(C(Cc2ccc(OCC)cc2)C(=O)O)CCN(CC(=O)[O-])CC1.[Gd+3] (stereo not shown) [Example 29, gadolinium 2-{7-[1-carboxy-2-(4-ethoxyphenyl)ethyl]-4,10-bis(carboxylatomethyl)-1,4,7,10-tetraazacyclododecan-1-yl}pentanoate]	−0.53	>305	96	87 % of RC1	99	99	7.5	4.4	493 % of RC1	75 % of RC1
CCCC(C(=O)[O-])N1CCN(CC(=O)[O-])CCN(C(Cc2ccc(OCC)cc2)C(=O)O)CCN(CC(=O)[O-])CC1.[Gd+3] (stereo not shown) [Example 30, gadolinium 2-{7-[1-carboxy-2-(4-ethoxyphenyl)ethyl]-4,10-bis(carboxylatomethyl)-1,4,7,10-tetraazacyclododecan-1-yl}pentanoate]	−0.60	>35	90	75 % of RC1	99	98	7.6	4.7	169 % of RC1	62 % of RC1

From US20260083864A1, “CONTRAST AGENTS FOR USE IN DIAGNOSTIC COMPUTED TOMOGRAPHY IMAGING” (Bayer Aktiengesellschaft, priority 2022, published 2026)
